Structure (SMILES),melting point,boiling point,log10 vapour pressure (mmHg),ready biodegradability,log10 Koc (L/kg),log10 Henry constant (atm·m³/mol),log10 Koa
NNC(=O)c1ccc(O)cc1,265 °C,–,–,–,–,–,–
CCCCCCC(=O)CCCCCC,33 °C,261 °C,-2.18,–,–,–,–
Nc1ccc2c(c1)Cc1cc(N)ccc1-2,166 °C,–,–,–,–,–,–
CC(=O)CC(=O)Nc1ccc(C)cc1C,90 °C,–,–,not readily biodegradable,–,–,–
O=COCc1ccccc1,–,203 °C,–,–,–,–,–
CCCC1CCCCC1,-94.9 °C,157 °C,0.622,–,–,–,–
CC1=CCCC1C (stereo not given),-118 °C,99 °C,–,–,–,–,–
O=C1OCCC1N(C(=O)C1CC1)c1cccc(Cl)c1 (stereo not given),95 °C,–,–,–,–,–,–
CCOc1cccc(OCC)c1,12.4 °C,235 °C,–,–,–,–,–
O=C(C=Cc1ccccc1)c1ccccc1O,90 °C,–,–,–,–,–,–
CNC(C)Cc1ccc(O)cc1 (stereo not given),161 °C,–,–,–,–,–,–
CCC1(C)CC1,-130 °C,56.8 °C,–,–,–,–,–
O=C(O)c1ccoc1,122 °C,–,–,–,–,–,–
O=NN(c1ccccc1)c1ccccc1,66.5 °C,–,–,readily biodegradable,3.08,–,–
CC(=O)OCC(=O)[C@@]1(O)[C@@H](C)C[C@H]2[C@@H]3CCC4=CC(=O)C=C[C@]4(C)[C@@]3(F)[C@@H](O)C[C@@]21C,248 °C,–,–,–,–,–,–
CC(=O)OOC(C)=O,30 °C,–,–,–,–,–,–
Cc1ccc([N+](=O)[O-])cc1N,106 °C,–,–,–,–,–,–
CCC(S)CC,-111 °C,105 °C,–,–,–,–,–
CCc1ccc(Cl)cc1,-62.6 °C,184 °C,–,–,–,–,–
O=C(O)c1cc(Cl)ccc1Cl,154 °C,301 °C,–,not readily biodegradable,–,–,–
FC(F)(F)CBr,-93.9 °C,26 °C,–,–,–,–,–
COc1ccc(C(c2ccc(OC)cc2)C(Cl)(Cl)Cl)cc1,87 °C,346 °C,–,–,4.9,-6.69,–

Structure (SMILES),melting point,boiling point,log10 vapour pressure (mmHg),ready biodegradability,log10 Koc (L/kg),log10 Henry constant (atm·m³/mol),log10 Koa
FCBr,–,19 °C,–,–,–,–,–
"CC(C)(C)[C@@H](O)[C@@H](Cc1ccc(Cl)cc1)n1cncn1 (single isomer, unassigned)",166 °C,–,-8.12,–,2.7,–,–
Cc1cc(C(C)(C)C)c(C)cc1O,71.2 °C,264 °C,–,–,–,–,–
C=CCI,-99.3 °C,103 °C,–,–,–,–,–
Nc1ccc2ccccc2c1N,98.5 °C,–,–,–,–,–,–
CC(Br)C(C)Br (stereo not given),-24 °C,161 °C,0.58,–,–,–,–
Cc1ccncc1,3.66 °C,145 °C,0.761,–,–,-5.22,–
Cl[C@H]1CC[C@@H](Cl)CC1,18 °C,–,–,–,–,–,–
CCC(C)CC(C)=O (stereo not given),–,144 °C,–,–,–,–,–
Oc1ccc(Oc2ccccc2)cc1,84 °C,–,–,–,–,–,–
C[C@@H]1C=Cc2ccccc21,–,199 °C,–,–,–,–,–
CCC(C)(CC)C(C)C,–,145 °C,–,–,–,–,–
O=C(O)[C@@H]1CCCN1C(=O)OCc1ccccc1,77 °C,–,–,–,–,–,–
COc1cccc(C)c1,-47 °C,176 °C,–,–,–,–,–
COc1ccccc1OC,22.5 °C,206 °C,-0.328,readily biodegradable,2.03,–,–
C1CCCCCCCCCCC1,60.4 °C,247 °C,–,not readily biodegradable,–,–,–
CCOC(=O)C(OCC)OCC,–,199 °C,–,–,–,–,–
C=C1CCC(C)CC1,–,122 °C,–,–,–,–,–
C[N+](C)(C)CCOC(Cc1ccccc1)c1ccccc1.[Br-] (stereo not given),146 °C,–,–,–,–,–,–
CC(=O)NC(N)=S,165 °C,–,–,–,–,–,–
Cc1ccc2c(C)cccc2c1C,33.5 °C,–,–,–,–,–,–
Cc1ccc(CC=O)cc1,40 °C,222 °C,–,–,–,–,–

Structure (SMILES),melting point,boiling point,log10 vapour pressure (mmHg),ready biodegradability,log10 Koc (L/kg),log10 Henry constant (atm·m³/mol),log10 Koa
FC(F)(F)SSC(F)(F)F,–,34.6 °C,–,–,–,–,–
COCCOC1=C(N2CC2)C(=O)C(OCCOC)=C(N2CC2)C1=O,80 °C,–,–,–,–,–,–
CC(=O)OCC(=O)[C@@]12OC(C)(C)O[C@@H]1C[C@H]1[C@@H]3C[C@H](F)C4=CC(=O)C=C[C@]4(C)[C@@]3(F)[C@@H](O)C[C@@]12C,309 °C,–,–,–,–,–,–
CC(=O)N(C)c1ccccc1,103 °C,256 °C,–,not readily biodegradable,–,–,–
CCCCCCC(C)=O,-16 °C,172 °C,0.13,readily biodegradable,–,-3.73,–
O=c1c2ccccc2nc2n1CCc1c-2[nH]c2ccccc12,260 °C,–,–,–,–,–,–
N[C@@H](CCC(=O)O)C(=O)O,–,–,-7.77,readily biodegradable,–,–,–
OCC1OC(O)C(O)C(O)C1O (stereo not given),–,–,–,readily biodegradable,–,–,–
CC(C)OC(=O)C1(S(=O)(=O)c2ccc(Cl)cc2)CC1,89.8 °C,–,–,–,–,–,–
Cc1c([N+](=O)[O-])c(C)c([N+](=O)[O-])c(C(C)(C)C)c1[N+](=O)[O-],110 °C,–,–,not readily biodegradable,–,–,–
C[N+](C)(C)CC(=O)O.[Cl-],242 °C,–,–,–,–,–,–
Oc1c(I)cc(Cl)c2cccnc12,178 °C,–,–,–,–,–,–
CCCCCCOCCCCCC,–,223 °C,-1.34,–,–,–,–
Ic1cccc(I)c1,40.4 °C,285 °C,–,–,–,–,–
ClC(COCC(Cl)C(Cl)(Cl)Cl)C(Cl)(Cl)Cl (stereo not given),-50 °C,–,–,not readily biodegradable,–,–,–
Clc1ccc(Cl)c(-c2ccccc2Cl)c1,–,–,-2.98,–,4.4,-3.6,7.6
O=c1cc(-c2ccccc2)oc2cc(O)cc(O)c12,286 °C,–,–,–,–,–,–
c1cncc([C@@H]2CCCN2)c1,–,270 °C,–,not readily biodegradable,–,–,–
CCN(CCO)c1ccc(N=Nc2ccc([N+](=O)[O-])cc2)cc1,161 °C,–,-13.4,–,–,–,–
O=[N+]([O-])OC(CO)CO,54 °C,158 °C,–,–,–,–,–
C[Si](C)(C)O[Si](C)(C)O[Si](C)(C)O[Si](C)(C)C,-76 °C,194 °C,-0.426,–,–,1.23,–

# Source: the OPERA property sets (Mansouri et al. 2018)
